According to PMC12667295, “A surrogate barrier model for high-throughput blood-brain barrier permeability prediction: integrating LLC-PK1-MOCK/MDR1 Cells and lysosomal trapping correction” (Drug Delivery, 2025):
Where two headings read alike, the source gives them in different places.

Columns and labels:
in vivo = settings: rat
Text: In vivo unbound brain distribution data (Kp,uu,Brain) for 16 drugs and total brain distribution data (Kp,Brain) for 16 drugs was acquired from literature. […] For each tested compound, fifteen rats were randomly divided into five groups of three rats each. […] The time of execution of the rats by CO2 inhalation after administration was optimized according to the in vivo elimination rate to achieve five concentrations of different time points. After the rats were euthanized, cardiac puncture was performed immediately to remove as much whole blood as possible (~7 ml) from the systemic circulation (Quantitatively aliquot 0.2 ml of whole blood for the determination of drug concentration in plasma). Afterwards, the brain tissue was collected immediately and rinsed repeatedly with ice-cold saline 3 times. Then, the surface saline was blotted dry with clean filter paper to remove as much residual drug in the blood vessels as possible. Plasma samples were prepared by centrifugation of the blood samples at 2,500 g for 10 minutes at 4 °C. All brain samples were homogenized by adding 4-fold volume water. All samples were stored at -40 °C before LC-MS/MS analysis. […] The brain tissue partition coefficient (Kp, brain) and brain-to-plasma unbound drug partition ratio (Kp,uu, brain) are calculated according to the following formulas, respectively: Kp,brain=AUC(0−∞,brain)/AUC(0−∞,plasma)Kp,uu,brain=Kp,brain×(fu,tissue/fu,plasma)
Free brain-to-plasma distribution coefficients (Kp,uu,brain) of 41 drugs. Brain distribution coefficients (Kp,uu,brain) were calculated for 41 drugs. […] Plasma and brain concentration-time profiles were generated, and AUC(0-t) values for both matrices were calculated using WinNolin 8.1. Kp,brain was derived as the ratio of brain-to-plasma AUC(0-t).
Kp,uu,brain values were computed by normalizing Kp,brain to unbound fractions (fu,plasma and fu,brain).

[1] = Bidirectional transport across LLC-PK1 MOCK monolayer (Transwell); settings: pig; for Papp A→B at 2 h, 2 µM: LLC-PK1, pH 7.4, Papp A-B, LLC-PK1 MOCK, mean ± s, n = 3, BLQ = below 2 nM;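 for all read-outs here: compound quantified by LC-MS/MS in donor and receiver wells, efflux ratio as B-A over A-B Papp, recovery relative to initial donor amount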
Description: (§1) Cells were passaged at 80−90% confluence (every 2−3 days) using trypsin-EDTA solution. […] The culture medium was replaced every other day, including 200 µL culture medium in the apical and 850 µL cell culture medium in the basolateral side. LLC-PK1 MOCK cells were used at passages of 3−30. LLC-PK1-MDR1 cells were cultured and passaged in the same manner as LLC-PK1 cells except at the density of 1 × 10^4 cells per well. LLC-PK1-MDR1 cells were used at passages of 3−25. For LLC-PK1 MOCK cells and LLC-PK1-MDR1 cells, the experiments were performed on the 4th and 7th day after seeding.
(§2) Samples were collected from the donor well at the start of the incubation (50 µL) as C0, and from the donor and receiver wells at the end of the incubation (50 µL). All samples were stored at - 40 °C for LC-MS/MS analysis.
(§3) Bidirectional transport experiments. […] The transwell experiments were conducted following above-mentioned procedure. […] When the recovery rate of the tested drug is below 80%, the possibility of intracellular accumulation should be considered. The polycarbonate (PC) membrane where cells are grown should be carefully peeled off from the cell culture medium and placed in 100 µL of HBSS buffer solution. […] The process was carried out on ice to prevent heat-induced degradation, applying a power in the range of 300 W for a total duration of 20 minutes. Thereafter, a quantitative analysis of the intracellular drug was conducted, and the drug recovery rate was recalculated based on this analysis.
(§4) The apparent permeability coefficient (Papp, cm/s) was calculated for each transport direction, A-B and B-A, using the following equation: Papp=dQ/dt×1/A×C0 where dQ/dt is the permeation rate (µmol/s), A is the surface area of the insert (0.33 cm^2, Corning), and C0 is the initial donor concentration (µM).
(§5) The efflux ratio (ER) is calculated as the ratio of Papp (B-A)/Papp (A-B). Recovery=TRcumrf+Cdf×VD/Cdi×VD×100% Where TRcumrf is the cumulative transported mass in the receiver chamber at the end of the incubation (nmol), Cdf is the concentration of the drug in the donor chamber at the end of the incubation (μM), VD is the volume of the donor chamber (mL), and Cdi is the initial concentration of the drug in the donor chamber (μM).
(§6) The method of the bidirectional transport experiment was the same as before.

[2] = parameters: method as in Internal data; settings: footnote a; ref Internal data; cited from earlier work
[3] = footnote a; ref Internal data; cited from earlier work
[4] = cited from earlier work
P-gp (human MDR1) [5] = assay: Bidirectional transport across LLC-PK1-MDR1 monolayer stably expressing human MDR1 (P-gp) (Transwell); settings: pig;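 note: 2 h incubation at 37 °C, receiver HBSS with 10 mM Hepes plus 1% BSA, LC-MS/MS of donor and receiver, recovery as receiver plus donor amount over initial donor amount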
in vitro = settings: pig, LLC-PK1 MOCK cell monolayer (Transwell), pH 7.4
Description: as §1, §2, §3, §4, §5, §6

P-gp (human MDR1) [6] = assay: in vitro; settings: pig, LLC-PK1, pH 7.4

**Q.** What does the source list for `Cc1cccc([C@H](C)c2cnc[nH]2)c1C` [Dexmedetomidine]?
**A.** Kp uu (in vivo): 2.21; Papp B→A at 2 h, 2 µM ([1]; LLC-PK1, pH 7.4): 35.2 ± 2.56 ×10⁻⁶ cm/s; Papp A→B at 2 h, 2 µM [1]: 30.8 ± 0.61 ×10⁻⁶ cm/s; Protein binding in brain tissue [2]: 86.7^a %; Kp, Brain [3]: 0.80^a; Protein binding in plasma ([4]; footnote a, ref Internal data): 95.2^a %; Papp B→A at 2 h, 2 µM (P-gp (human MDR1) [5]; LLC-PK1, pH 7.4): 29.1 ± 3.62 ×10⁻⁶ cm/s; Papp A→B at 2 h, 2 µM (P-gp (human MDR1) [5]; LLC-PK1, pH 7.4, Papp A-B, LLC-PK1-MDR1, 2 µM, 2 h, mean ± s, n = 3): 30.2 ± 3.4 ×10⁻⁶ cm/s

**Q.** Which Kp uu (in vivo) does the source give for `COc1ccc2[nH]cc(CCNC(C)=O)c2c1` [Melatonin] here?
**A.** 0.575

**Q.** What about the Papp B→A at 2 h, 2 µM ([1]; LLC-PK1, pH 7.4) of the same compound?
**A.** 20.6 ± 0.92 ×10⁻⁶ cm/s

**Q.** And the efflux ratio at 2 h, 2 µM ([1]; LLC-PK1, pH 7.4)?
**A.** 0.92

**Q.** And the Papp A→B at 2 h, 2 µM [1]?
**A.** 22.4 ± 0.51 ×10⁻⁶ cm/s

**Q.** What about the “Protein binding in brain tissue” value [2] of the same compound?
**A.** 30.0^a %

**Q.** What about the “Kp, Brain” value [3] of the same compound?
**A.** 0.5^a

**Q.** What about the “Protein binding in plasma” value ([4]; ref Le Quellec et al. [1994]) of the same compound?
**A.** 33.0%

**Q.** And the recovery at 2 h, 2 µM (in vitro)?
**A.** 105 ± 2.95%

**Q.** And the recovery at 2 h, 2 µM (P-gp (human MDR1) [6])?
**A.** 93.1 ± 1.67%

**Q.** And the Papp A→B at 2 h, 2 µM (P-gp (human MDR1) [5]; LLC-PK1, pH 7.4)?
**A.** 20.8 ± 1.43 ×10⁻⁶ cm/s

**Q.** And the Papp B→A at 2 h, 2 µM (P-gp (human MDR1) [5]; LLC-PK1, pH 7.4)?
**A.** 21.7 ± 1.08 ×10⁻⁶ cm/s

**Q.** And the efflux ratio at 2 h, 2 µM (P-gp (human MDR1) [5]; LLC-PK1, pH 7.4)?
**A.** 1.02
